# Experimental data as given in US10144715B2, “Piperazine derivatives as liver X receptor modulators” (priority 2014, dated 2018).
# Like-named read-outs stand apart in the source and are kept apart here.
# Tests used:
# [1] = biological target: LXR α LBD protein (Homo sapiens (Human), UniProt Q13133); test: LXR α radioligand binding assay (SPA, competition with [3H]TO901317); details: read-out: LXRα Binding Ki
# [2] = biological target: LXR β LBD protein (Homo sapiens (Human), UniProt P55055); test: biochemical; format: binding
# [3] = biological target: Gal4 DNA binding domain fused to the LBD of LXRα in HEK293 cells (Homo sapiens (Human), UniProt Q13133); test: LXR luciferase transcriptional reporter gene assay, agonist mode, LXRα; format: cell-based; details: for EC50: read-out: Cell LXRα EC50
# [4] = biological target: Gal4 DNA binding domain fused to the LBD of LXRβ in HEK293 cells (Homo sapiens (Human), UniProt P55055); test: cell-based
# [5] = Biological Test Example 1, read-out: LXRβ Binding Ki
# [6] = Biological Test Example 2, agonist mode
# [7] = Biological Test Example 2, agonist mode, read-out: Cell LXRβ EC50
# [8] = agonist mode, read-out: Cell LXRβ EC50
# Sequence of LXR α LBD protein (Q13133 209-447): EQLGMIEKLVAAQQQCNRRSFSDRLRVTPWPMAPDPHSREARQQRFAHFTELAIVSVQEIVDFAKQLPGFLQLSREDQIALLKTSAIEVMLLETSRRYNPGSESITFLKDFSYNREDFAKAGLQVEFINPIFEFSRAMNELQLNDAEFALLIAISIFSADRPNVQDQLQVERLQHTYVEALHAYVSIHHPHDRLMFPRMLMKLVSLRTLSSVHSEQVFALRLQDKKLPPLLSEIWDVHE
# Sequence of Gal4 DNA binding domain fused to the LBD of LXRα in HEK293 cells (Q13133 209-447): as above
# Sequence of Gal4 DNA binding domain fused to the LBD of LXRβ in HEK293 cells (P55055 222-460 limits assumed): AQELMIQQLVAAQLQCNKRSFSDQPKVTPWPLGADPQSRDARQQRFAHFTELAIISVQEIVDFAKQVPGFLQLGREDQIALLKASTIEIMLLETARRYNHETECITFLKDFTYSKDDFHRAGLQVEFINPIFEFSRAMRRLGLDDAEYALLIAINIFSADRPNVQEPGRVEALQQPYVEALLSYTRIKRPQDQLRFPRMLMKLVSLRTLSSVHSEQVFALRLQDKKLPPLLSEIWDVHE
# Sequence of LXR β LBD protein (P55055 222-460 limits assumed): as above
Compound,Ki [1],Ki ([2]; read-out: LXRβ Binding Ki),EC50 ([3]; agonist mode),EC50 [4],Cell LXRα efficacy [3],EC50 [3],Cell LXRβ efficacy ([4]; agonist mode),further results
"CC(C)[C@@H]1CN(c2ccc(F)c(S(C)(=O)=O)c2)CCN1c1ncc(C(=O)N(C)CCCNC(=O)OC(C)(C)C)c(C(F)(F)F)n1 [17-23, tert-butyl (R)-(3-(2-(4-(4-fluoro-3-(methylsulfonyl)phenyl)-2-isopropylpiperazin-1-yl)-N-methyl-4-(trifluoromethyl)pyrimidine-5-carboxamido)propyl)carbamate]",1.42 µM,0.257 µM,> 20 µM,> 20 µM,–,–,–,–
"C[C@@](O)(c1ccc(CN2CCN(c3cccc(S(C)(=O)=O)c3)C[C@H]2c2ccccc2)cc1)C(F)(F)F (single isomer, unassigned) [46-30]",1.67 µM,–,–,0.532 µM,1787 (28) %,1.79 µM,532 (12) %,Ki [2]: 0.216 µM
"CC(C)[C@H]1CC[C@H](CN2CCN(c3ccc(CO)c(S(C)(=O)=O)c3)C[C@H]2c2ccccc2)CC1 (single isomer, unassigned) [48-78]",30.7 µM,–,–,–,10997 (14) %,11 µM,–,"Ki [2, 5]: 2.46 µM; Cell LXRβ efficacy [4, 6]: 10%; EC50 [4, 7]: 8.34 µM"
"CC(C)[C@@H]1CN(c2ccc(C#N)c(S(C)(=O)=O)c2)CCN1c1ncc([C@H](C)O)c(C(F)(F)F)n1 (single isomer, unassigned) [12-5]",1.18 µM,0.08 µM,–,0.521 µM,1481 (22) %,1.48 µM,521 (40) %,–
"CC(C)[C@H]1CN(c2ccc(CO)c(S(C)(=O)=O)c2)CCN1Cc1ccc(C(F)(F)F)o1 [47-5, (S)-(4-(3-isopropyl-4-((5-(trifluoromethyl)furan-2-yl)methyl)piperazin-1-yl)-2-(methylsulfonyl)phenyl)methanol]",1.09 µM,0.109 µM,–,0.248 µM,1187 (62) %,1.19 µM,–,Cell LXRβ efficacy [4]: 248 (50) %
"CCOC(=O)c1cnc(N2CCN(c3cccc(S(C)(=O)=O)c3)C[C@H]2c2nc(C)cs2)nc1C(F)(F)F [9-8, ethyl (S)-2-(4-(3-(methylsulfonyl)phenyl)-2-(4-methylthiazol-2-yl)piperazin-1-yl)-4-(trifluoromethyl)pyrimidine-5-carboxylate]",2.35 µM,0.659 µM,> 20 µM,2.47 µM,–,–,2469 (14) %,–
"CC(C)[C@H]1CN(c2cccc(S(C)(=O)=O)c2)CCN1C[C@H]1CC[C@@H](C(F)(F)F)OC1 (single isomer, unassigned) [Cpd No 49-5]",0.421 µM,–,–,0.266 µM,578 (64) %,0.578 µM,–,Ki [2]: 0.07 µM; Cell LXRβ efficacy [4]: 266 (77) %
"CO[C@@H](C)[C@@H]1CN(c2ccc(CO)c(S(C)(=O)=O)c2)CCN1c1ncc(CO)c(C(F)(F)F)n1 (single isomer, unassigned) [11-4]",1.89 µM,–,3.11 µM,0.347 µM,3106 (30) %,–,347 (24) %,Ki [2]: 0.159 µM
"CC(F)(F)[C@H]1CC[C@@H](CN2CCN(c3cccc(S(C)(=O)=O)c3)C[C@H]2c2ccccc2)CC1 (single isomer, unassigned) [48-29]",–,0.378 µM,–,–,6290 (43) %,6.29 µM,20%,"EC50 [4, 8]: 1.51 µM"
"CC(C)[C@@H]1CN(c2ccc(F)c(S(C)(=O)=O)c2)CCN1c1ncc(C(=O)NC2CN(C(=O)OC(C)(C)C)C2)c(C(F)(F)F)n1 [17-20, tert-butyl (R)-3-(2-(4-(4-fluoro-3-(methylsulfonyl)phenyl)-2-isopropylpiperazin-1-yl)-4-(trifluoromethyl)pyrimidine-5-carboxamido)azetidine-1-carboxylate]",–,0.33 µM,> 20 µM,> 20 µM,–,–,–,–
"CCOC(=O)c1cnc(N2CCN(c3ccc(F)c(S(C)(=O)=O)c3)C[C@H]2C2CC2)nc1C(F)(F)F [9-4, ethyl (R)-2-(2-cyclopropyl-4-(4-fluoro-3-(methylsulfonyl)phenyl)piperazin-1-yl)-4-(trifluoromethyl)pyrimidine-5-carboxylate]",–,0.013 µM,1.41 µM,0.318 µM,1415 (37) %,–,318 (27) %,–
"CC(=O)c1cnc(N2CCN(c3ccc(F)c(S(C)(=O)=O)c3)C[C@H]2c2ccc(F)cc2)nc1C(F)(F)F [13-3, (R)-1-(2-(4-(4-fluoro-3-(methylsulfonyl)phenyl)-2-(4-fluorophenyl)piperazin-1-yl)-4-(trifluoromethyl)pyrimidin-5-yl)ethan-1-one]",–,0.088 µM,–,0.36 µM,2458 (21) %,2.46 µM,360 (18) %,–
"CON(C)C(=O)c1cnc(N2CCN(c3ccc(F)c(S(C)(=O)=O)c3)C[C@H]2c2ccc(F)cc2)nc1C(F)(F)F [17-32, (R)-2-(4-(4-fluoro-3-(methylsulfonyl)phenyl)-2-(4-fluorophenyl)piperazin-1-yl)-N-methoxy-N-methyl-4-(trifluoromethyl)pyrimidine-5-carboxamide]",–,–,> 20 µM,> 20 µM,–,–,–,Ki [2]: 0.435 µM
"COC(=O)c1cc(CN2CCN(c3cccc(S(C)(=O)=O)c3)CC2c2ccccc2)ccc1C(F)(F)F (stereo not shown) [46-36, methyl 5-((4-(3-(methylsulfonyl)phenyl)-2-phenylpiperazin-1-yl)methyl)-2-(trifluoromethyl)benzoate]",–,0.244 µM,11.3 µM,4.76 µM,11251 (20) %,–,4759 (14) %,–
"C[C@@H](c1ccc(C(F)(F)F)cc1)N1CCN(c2cccc(S(C)(=O)=O)c2)C[C@@H]1c1ccccc1 [46-16, (S)-4-(3-(methylsulfonyl)phenyl)-2-phenyl-1-((S)-1-(4-(trifluoromethyl)phenyl)ethyl)piperazine]",–,–,–,> 20 µM,–,> 20 µM,–,Ki [2]: 0.503 µM
"CS(=O)(=O)c1cccc(N2CCN(C[C@H]3CC[C@]4(CC3)CC4(F)F)[C@H](c3ccccc3)C2)c1 [48-72, (R)-1-(((3R,6r)-1,1-difluorospiro[2.5]octan-6-yl)methyl)-4-(3-(methylsulfonyl)phenyl)-2-phenylpiperazine]",–,–,–,–,7222 (11) %,7.22 µM,–,"Ki [2, 5]: 0.825 µM; Cell LXRβ efficacy [4, 6]: 31%; EC50 [4, 7]: 2.88 µM"
"COC(=O)c1cnc(N2CCN(c3ccc(F)c(S(C)(=O)=O)c3)C[C@H]2c2ccc(F)cc2)nc1C(F)(F)F [9-9, methyl (R)-2-(4-(4-fluoro-3-(methylsulfonyl)phenyl)-2-(4-fluorophenyl)piperazin-1-yl)-4-(trifluoromethyl)pyrimidine-5-carboxylate]",–,0.298 µM,3.04 µM,0.78 µM,3041 (6) %,–,780 (13) %,–
"Cc1nc(N2CCN(c3ccc(F)c(S(C)(=O)=O)c3)CC2CC(F)(F)F)ncc1C(C)(C)O (stereo not shown) [10-6, 2-(2-(4-(4-fluoro-3-(methylsulfonyl)phenyl)-2-(2,2,2-trifluoroethyl)piperazin-1-yl)-4-methylpyrimidin-5-yl)propan-2-ol]",–,0.862 µM,9.16 µM,1.31 µM,9158 (22) %,–,–,–
"CC(C)[C@@H]1CN(c2ccc(F)c(S(C)(=O)=O)c2)CCN1c1ncc(C(=O)N2CC(NC(=O)OC(C)(C)C)C2)c(C(F)(F)F)n1 [17-21, tert-butyl (R)-(1-(2-(4-(4-fluoro-3-(methylsulfonyl)phenyl)-2-isopropylpiperazin-1-yl)-4-(trifluoromethyl)pyrimidine-5-carbonyl)azetidin-3-yl)carbamate]",–,0.111 µM,> 20 µM,> 20 µM,–,–,–,–
"C[C@H](c1ccc(C(F)(F)F)cc1)N1CCN(c2cccc(S(C)(=O)=O)c2)C[C@@H]1c1ccccc1 (single isomer, unassigned) [46-18]",–,–,–,1.43 µM,4598 (45) %,4.6 µM,–,Ki [2]: 0.035 µM; Cell LXRβ efficacy [4]: 1434 (31) %
"CS(=O)(=O)c1cccc(N2CCN(C[C@H]3CC[C@@]4(CC3)CC4(F)F)[C@H](c3ccccc3)C2)c1 (single isomer, unassigned) [48-70]",–,–,–,–,9091 (26) %,9.09 µM,–,"Ki [2, 5]: 0.75 µM; Cell LXRβ efficacy [4, 6]: 58%; EC50 [4, 7]: 3.73 µM"
"CC(C)[C@@H]1CN(c2ccc(F)c(S(C)(=O)=O)c2)CCN1c1ncc(C#N)c(C(F)(F)F)n1 [7-21, (R)-2-(4-(4-fluoro-3-(methylsulfonyl)phenyl)-2-isopropylpiperazin-1-yl)-4-(trifluoromethyl)pyrimidine-5-carbonitrile]",–,0.009 µM,0.549 µM,0.152 µM,549 (86) %,–,152 (65) %,–
"CC(F)(F)[C@H]1CC[C@@H](CN2CCN(c3cccc(S(C)(=O)=O)c3)C[C@@H]2c2ccccc2)CC1 (single isomer, unassigned) [48-28]",–,1.34 µM,–,–,–,> 20 µM,12%,"EC50 [4, 8]: 6.48 µM"
"CS(=O)(=O)c1cccc(N2CCN(CC3(F)CCN(CC(F)(F)F)CC3)[C@@H](c3ccc(F)cc3)C2)c1 [48-57, (S)-1-((4-fluoro-1-(2,2,2-trifluoroethyl)piperidin-4-yl)methyl)-2-(4-fluorophenyl)-4-(3-(methylsulfonyl)phenyl)piperazine]",–,–,–,1.27 µM,4500 (37) %,–,–,"Ki [2, 5]: 0.492 µM; EC50 [3, 6]: 4.5 µM; Cell LXRβ efficacy [4, 6]: 1272 (13) %"
